Counter-ions that a name gives are not always drawn. Like-named read-outs stand apart in the source and are kept apart here.
Molecular target: T1, recombinant human baculovirus-expressed GST-tagged FASN (Homo sapiens, UniProt P49327)
T1 construct: GST
Assay: biochemical

[1] = 5 nM FASN, 150 μM NADPH, 10 μM acetyl-CoA, 25 μM malonyl-CoA, 90 minutes incubation, read-out: IC50 data for Compounds of Formula I, Activity

T1 sequence (P49327 whole entry): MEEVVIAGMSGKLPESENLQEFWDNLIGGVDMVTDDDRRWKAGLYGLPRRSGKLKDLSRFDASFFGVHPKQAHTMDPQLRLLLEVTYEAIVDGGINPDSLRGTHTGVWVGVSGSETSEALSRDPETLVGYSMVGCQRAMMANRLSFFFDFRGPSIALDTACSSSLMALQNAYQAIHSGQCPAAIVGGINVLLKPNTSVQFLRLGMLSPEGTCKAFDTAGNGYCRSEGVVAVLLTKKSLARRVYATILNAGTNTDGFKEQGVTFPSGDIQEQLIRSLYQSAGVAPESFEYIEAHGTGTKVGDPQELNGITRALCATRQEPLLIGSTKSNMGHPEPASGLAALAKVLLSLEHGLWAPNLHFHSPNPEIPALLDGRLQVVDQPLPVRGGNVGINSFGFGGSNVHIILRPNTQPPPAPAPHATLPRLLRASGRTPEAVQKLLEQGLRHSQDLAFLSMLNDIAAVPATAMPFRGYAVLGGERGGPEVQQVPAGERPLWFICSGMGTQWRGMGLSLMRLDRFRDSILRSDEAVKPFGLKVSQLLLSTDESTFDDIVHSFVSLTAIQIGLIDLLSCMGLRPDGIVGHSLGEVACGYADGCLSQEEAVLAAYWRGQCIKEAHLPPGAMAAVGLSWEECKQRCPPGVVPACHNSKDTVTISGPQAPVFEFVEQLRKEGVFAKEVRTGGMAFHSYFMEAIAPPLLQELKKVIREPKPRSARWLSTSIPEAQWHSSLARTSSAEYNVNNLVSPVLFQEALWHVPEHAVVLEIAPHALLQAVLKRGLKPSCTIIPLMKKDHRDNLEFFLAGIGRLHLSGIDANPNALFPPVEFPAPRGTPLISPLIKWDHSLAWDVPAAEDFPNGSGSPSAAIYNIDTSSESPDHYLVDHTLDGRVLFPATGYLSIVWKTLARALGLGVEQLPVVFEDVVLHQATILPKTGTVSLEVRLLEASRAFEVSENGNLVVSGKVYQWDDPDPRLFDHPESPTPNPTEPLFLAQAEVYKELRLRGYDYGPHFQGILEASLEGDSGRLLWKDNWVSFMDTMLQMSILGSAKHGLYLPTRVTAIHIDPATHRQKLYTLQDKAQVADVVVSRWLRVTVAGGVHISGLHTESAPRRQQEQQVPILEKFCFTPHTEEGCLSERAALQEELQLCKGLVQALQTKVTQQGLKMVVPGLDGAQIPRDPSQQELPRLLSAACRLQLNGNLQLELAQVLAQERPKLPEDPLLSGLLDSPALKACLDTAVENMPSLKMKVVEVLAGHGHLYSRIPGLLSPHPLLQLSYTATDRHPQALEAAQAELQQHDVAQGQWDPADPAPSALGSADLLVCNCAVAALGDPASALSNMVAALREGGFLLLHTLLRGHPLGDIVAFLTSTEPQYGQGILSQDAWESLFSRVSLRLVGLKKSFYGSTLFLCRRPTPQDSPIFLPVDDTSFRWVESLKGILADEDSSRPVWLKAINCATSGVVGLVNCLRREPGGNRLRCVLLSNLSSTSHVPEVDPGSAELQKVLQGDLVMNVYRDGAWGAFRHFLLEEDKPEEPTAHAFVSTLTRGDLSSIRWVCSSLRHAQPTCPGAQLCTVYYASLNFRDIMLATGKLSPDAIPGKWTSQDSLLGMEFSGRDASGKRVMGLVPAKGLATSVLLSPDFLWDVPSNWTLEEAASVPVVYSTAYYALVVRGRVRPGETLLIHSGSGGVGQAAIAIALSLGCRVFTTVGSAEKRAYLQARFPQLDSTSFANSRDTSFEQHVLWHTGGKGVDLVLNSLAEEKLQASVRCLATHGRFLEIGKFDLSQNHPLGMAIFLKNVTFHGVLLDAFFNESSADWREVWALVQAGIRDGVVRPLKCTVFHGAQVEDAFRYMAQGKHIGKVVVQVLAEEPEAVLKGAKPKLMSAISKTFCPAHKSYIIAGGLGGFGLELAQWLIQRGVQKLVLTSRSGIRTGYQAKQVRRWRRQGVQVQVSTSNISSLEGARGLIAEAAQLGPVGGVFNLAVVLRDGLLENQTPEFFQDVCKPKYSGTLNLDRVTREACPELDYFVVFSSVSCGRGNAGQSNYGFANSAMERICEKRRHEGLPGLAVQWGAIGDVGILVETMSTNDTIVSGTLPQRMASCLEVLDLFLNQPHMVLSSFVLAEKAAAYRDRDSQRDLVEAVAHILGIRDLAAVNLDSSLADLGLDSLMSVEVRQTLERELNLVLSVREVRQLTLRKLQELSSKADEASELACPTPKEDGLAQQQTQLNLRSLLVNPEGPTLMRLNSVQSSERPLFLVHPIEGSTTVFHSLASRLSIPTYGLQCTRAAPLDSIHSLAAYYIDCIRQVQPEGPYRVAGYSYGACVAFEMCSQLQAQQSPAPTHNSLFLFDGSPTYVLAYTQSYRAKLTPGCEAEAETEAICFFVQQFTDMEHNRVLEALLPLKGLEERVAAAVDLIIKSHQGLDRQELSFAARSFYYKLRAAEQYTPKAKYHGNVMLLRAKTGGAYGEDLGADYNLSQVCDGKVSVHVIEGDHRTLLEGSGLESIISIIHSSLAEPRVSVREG

With `CCCONC(=O)N1CCC2(CCc3cc(-c4ccc5c(C)nccc5c4)ccc3O2)CC1` [Example 186, 6-(1-Methyl-6-isoquinolyl)-N-propoxy-spiro[chromane-2,4′-piperidine]-1′-carboxamide] the IC50 [1] was 1 to 99 nM.

Compound `O=C(C1CC1)N1CCC2(CCc3cc(-c4ccncc4)ccc3O2)CC1` [Example 227, Cyclopropyl-[6-(4-pyridyl)spiro[chromane-2,4′-piperidine]-1′-yl]methanone, HCl] has an IC50 [1] of 1000 to 10000 nM.

In the case of `CONC(=O)N1CCC2(CCc3cc(-c4ccc5cccnc5c4Cl)ccc3O2)CC1` [Example 70, 6-(8-chloro-7-quinolyl)-N-methoxy-spiro[chromane-2,4′-piperidine]-1′-carboxamide], the IC50 [1] is reported as 1 to 99 nM.

`O=C(C1CC1)N1CCC2(C=Cc3cc(-c4cnc5ccccc5c4)ccc3O2)CC1` [Example 44, Cyclopropyl-[6-(3-quinolyl)spiro[chromene-2,4′-piperidine]-1′-yl]methanone] gave an IC50 [1] of 1 to 99 nM.

Compound `CCC(=O)N1CCC2(CCc3cc(-c4cnc5c(C)cccc5c4)ccc3O2)CC1` [Example 12, 1-[6-(8-Methyl-3-quinolyl)spiro[chromane-2,4′-piperidine]-1′-yl]propan-1-one] has an IC50 [1] of 1 to 99 nM.

For `CCOC(=O)N1CCC2(CC1)OCc1cc(-c3cnc4cccnc4c3)ccc1O2` [Example 35, Ethyl 6-(1,5-naphthyridin-3-yl)spiro[4H-1,3-benzodioxine-2,4′-piperidine]-1′-carboxylate], the IC50 was 1000 to 10000 nM.

For `Cc1c(-c2ccc3c(c2)CC2(CCN(C(=O)NO)CC2)O3)cnc2ccccc12` [Example 161, 5-(4-Methyl-3-quinolyl)spiro[3H-benzofuran-2,4′-piperidine]-1′-carbohydroxamic acid], the IC50 [1] was 1000 to 10000 nM.

Compound `Cc1c(-c2ccc3c(c2)CCC2(CCN(C(N)=O)CC2)O3)cnc2ccccc12` [Example 190, 6-(4-methyl-3-quinolyl)spiro[chromane-2,4′-piperidine]-1′-carboxamide] has an IC50 [1] of 1 to 99 nM.

Work on `O=C(C1CC1)N1CCC2(CC1)OCc1cc(-c3cnc4ccccc4c3)ccc1O2` [Example 40, Cyclopropyl-[6-(3-quinolyl)spiro[4H-1,3-benzodioxine-2,4′-piperidine]-1′-yl]methanone] yielded an IC50 of 1 to 99 nM.

For `CONC(=O)N1CCC2(CCc3cc(-c4ccc5cccnc5c4C)cc(F)c3O2)CC1` [Example 238, 8-Fluoro-N-methoxy-6-(8-methyl-7-quinolyl)spiro[chromane-2,4′-piperidine]-1′-carboxamide], the IC50 [1] was 1 to 99 nM.

`CCC(=O)N1CCC2(CCc3cc(-c4cnc5ccccc5c4)ccc3O2)CC1` [Example 47, 1-[6-(3-Quinolyl)spiro[chromane-2,4′-piperidine]-1′-yl]propan-1-one] showed an IC50 [1] of 1 to 99 nM.

`CONC(=O)N1CCC2(CC1)OCc1cc(-c3ccc4cnc(C)cc4c3)ccc1O2` [Example 205, N-Methoxy-6-(3-methyl-6-isoquinolyl)spiro[4H-1,3-benzodioxine-2,4′-piperidine]-1′-carboxamide] showed an IC50 of 1 to 99 nM.

For `CONC(=O)N1CCC2(CC1)OCc1cc(-c3cnc4ccccc4c3C)ccc1O2` [Example 133, N-Methoxy-6-(4-methyl-3-quinolyl)spiro[4H-1,3-benzodioxine-2,4′-piperidine]-1′-carboxamide], the IC50 was 1 to 99 nM.

In the case of `CCOC(=O)N1CCC2(CC1)OCc1cc(-c3ccc4cccnc4c3)ccc1O2` [Example 30, Ethyl 6-(7-quinolyl)spiro[4H-1,3-benzodioxine-2,4′-piperidine]-1′-carboxylate], the IC50 is reported as 1 to 99 nM.

For `CCONC(=O)N1CCC2(CC1)OCc1cc(-c3ccc4ccnn4c3C)ccc1O2` [Example 129, N-Ethoxy-6-(7-methylpyrazolo[1,5-a]pyridin-6-yl)spiro[4H-1,3-benzodioxine-2,4′-piperidine]-1′-carboxamide], the IC50 was 1 to 99 nM.

For `CCONC(=O)N1CCC2(CC1)OCc1cc(-c3ccc4cccnc4c3Cl)ccc1O2` [Example 135, 6-(8-Chloro-7-quinolyl)-N-ethoxy-spiro[4H-1,3-benzodioxine-2,4′-piperidine]-1′-carboxamide], the IC50 was 1 to 99 nM.

Work on `Cc1nccc2cc(-c3ccc4c(c3)CCC3(CCN(C(N)=O)CC3)O4)ccc12` [Example 183, 6-(1-Methyl-6-isoquinolyl)spiro[chromane-2,4′-piperidine]-1′-carboxamide] yielded an IC50 [1] of 100 to 999 nM.

Work on `CCC(=O)N1CCC2(CCc3cc(-c4cnc5ccccc5c4C)ccc3O2)CC1` [Example 2, 1-[6-(4-Methyl-3-quinolyl)spiro[chromane-2,4′-piperidine]-1′-yl]propan-1-one, HCl] yielded an IC50 [1] of 1 to 99 nM.

In the case of `O=C(C1CCC1)N1CCC2(C=Cc3cc(-c4cnc5ccccc5c4)ccc3O2)CC1` [Example 45, Cyclobutyl-[6-(3-quinolyl)spiro[chromene-2,4′-piperidine]-1′-yl]methanone], the IC50 [1] is reported as 1 to 99 nM.

In the case of `Cc1c(-c2ccc3c(c2)COC2(CCN(C(=O)CO)CC2)O3)ccc2cccnc12` [Example 62, 2-Hydroxy-1-[6-(8-methyl-7-quinolyl)spiro[4H-1,3-benzodioxine-2,4′-piperidine]-1′-yl]ethanone], the IC50 is reported as 100 to 999 nM.

`CONC(=O)N1CCC2(CCc3cc(-c4ccc5c(C)nccc5c4)ccc3O2)CC1` [Example 184, N-methoxy-6-(1-methyl-6-isoquinolyl)spiro[chromane-2,4′-piperidine]-1′-carboxamide] showed an IC50 [1] of 1 to 99 nM.

For `COc1c(-c2ccc3c(c2)CCC2(CCN(C(=O)[C@H]4CCCO4)CC2)O3)ccc2cccnc12` [Example 16, [6-(8-Methoxy-7-quinolyl)spiro[chromane-2,4′-piperidine]-1′-yl]-[(2R)-tetra-hydrofuran-2-yl]methanone HCl], the IC50 [1] was 1 to 99 nM.

For `CCC(=O)N1CCC2(CC1)OCc1cc(-c3cnc4ccccc4c3)ccc1O2` [Example 33, 1-[6-(3-Quinolyl)spiro[4H-1,3-benzodioxine-2,4′-piperidine]-1′-yl]propan-1-one], the IC50 was 1 to 99 nM.

For `Cc1c(-c2ccc3c(c2)CCC2(CCN(C(=O)[C@H]4CCCO4)CC2)O3)ccc2cccnc12` [Example 8, [6-(8-Methyl-7-quinolyl)spiro[chromane-2,4′-piperidine]-1′-yl]-[(2R)-tetrahydrofuran-2-yl]methanone, HCl], the IC50 [1] was 1 to 99 nM.

`CC(C)C(=O)N1CCC2(CC1)OCc1cc(-c3ccc4cccnc4c3)ccc1O2` [Example 31, 2-Methyl-1-[6-(7-quinolyl)spiro[4H-1,3-benzodioxine-2,4′-piperidine]-1′-yl]propan-1-one] was tested, and the IC50 was 1 to 99 nM.

Compound `Cc1cc(-c2ccc3c(c2)CCC2(CCN(C(=O)C4CC4)CC2)O3)cc2cccnc12` [Example 18, Cyclopropyl-[6-(8-methyl-6-quinolyl)spiro[chromane-2,4′-piperidine]-1′-yl]methanone HCl] has an IC50 [1] of 100 to 999 nM.

`COc1c(-c2ccc3c(c2)COC2(CCN(C(N)=O)CC2)O3)ccc2cccnc12` [Example 174, 6-(8-Methoxy-7-quinolyl)spiro[4H-1,3-benzodioxine-2,4′-piperidine]-1′-carboxamide] gave an IC50 of 1 to 99 nM.

`Cc1nccc2cc(-c3cc4c(cc3F)OC3(CC4)CCN(C(N)=O)CC3)ccc12` [Example 234, 7-Fluoro-6-(1-methyl-6-isoquinolyl)spiro[chromane-2,4′-piperidine]-1′-carboxamide] showed an IC50 [1] of 1000 to 10000 nM.

`Cc1c(-c2ccc3c(c2)COC2(CCN(C(N)=O)CC2)O3)cnc2ccccc12` [Example 132, 6-(4-Methyl-3-quinolyl)spiro[4H-1,3-benzodioxine-2,4′-piperidine]-1′-carboxamide] was tested, and the IC50 was 100 to 999 nM.
